{
  "source": "PubChem BioAssay AID2060615",
  "about": "(Molecular Pharmacology Branch, DTP, NCI, 2025)",
  "system": "496974-208-R-J2-PDC complex spheroids, growth % test/control",
  "assay": "Anticancer human tumor 496974-208-R-J2-PDC patient-derived pancreatic carcinoma cell line growth inhibition [CLK]",
  "conditions": "for viability, T/C: stronger effect = lower value",
  "description": "A high-throughput screen of multi-cell type tumor spheroids was designed to identify active combinations of […] and targeted small molecules. Complex spheroids include a stromal component modeled by human endothelial cells (HUVEC) and fibroblasts modeled by human mesenchymal stem cells (MSCs). The concentration ranges selected for each drug and investigational agent were based upon clinically achievable concentrations if the clinical Cmax of the agent was known.\nCompounds. The drugs and investigational agents: cirtuvivint (SM08502; NSC835563), CC-671 (NSC850746), vemurafenib (NSC761431), tapotoclax (NSC804041), sotorasib (NSC818433), adagrasib (NSC831453), MRTX-1133 (NSC836407), BAY2416964 (NSC825713), copanlisib (NSC816437), inavolisib (NSC800729), abemaciclib (NSC768073), osimertinib (NSC779217), entinostat (NSC756642), eltanexor (KPT-8602, NSC794443), venetoclax (NSC766270), ceralasertib (NSC777638), bortezomib (NSC756655), olaparib (NSC753686), talazoparib (NSC767125), alisertib (NSC759677), peposertib (NSC802822), gemcitabine (NSC613327), 5-fluorouracil (NSC19893), SN-38 (NSC673596), oxaliplatin (NSC266046), paclitaxel (NSC125973), and doxorubicin (NSC123127), were obtained from the National Cancer Institute (NCI) Developmental Therapeutics Program Chemical Repository. The FDA-approved anticancer drug set is available from the Developmental Therapeutics Program at https://dtp.cancer.gov/organization/dscb/obtaining/available plates.htm. […] The stock solutions were prepared in dimethyl sulfoxide (DMSO, Sigma-Aldrich, St. Louis, MO, cat. D2650), except for the platinum complexes which were prepared in saline (Quality Biological, Gaithersburg, MD, cat. 114-055-101), at 800-fold the tested concentration and stored at -70 degrees C prior to their use. All drugs and investigational agents were tested over a range starting from a high concentration at or near the clinical Cmax and decreasing in half-log increments. If the clinical Cmax for an agent had not been determined, the highest concentration tested was 10 microM.\nCell Culture. All cells were maintained in an incubator at 37 degrees C and 5% CO2 with 95% humidity. The PDC lines were cultured according to standard operating procedures established by the NCI PDMR. Briefly, all PDCs were thawed and cultured in Matrigel-coated flasks prepared with a working solution of 1X Ham's F-12 nutrient mix, without supplementation (Invitrogen, Waltham, MA, cat. 11765054), 100 U/mL penicillin-streptomycin (Invitrogen, cat. 15140122), and 2.5% Matrigel (Corning Inc., Corning, NY, cat. 354248) for the first three passages. The 947758-054-R-J2-PDC line was cultured in 6B/Colon 1A media, which includes advanced DMEM/F-12 (Thermo Fisher Scientific, cat. 12634028), 10 mM HEPES (Thermo Fisher Scientific, cat. 15630080), 1X GlutaMAX supplement (Thermo Fisher Scientific, cat. 35050061), 0.1 mg/mL primocin (InvivoGen, cat. ant-pm-2), 10% defined fetal bovine serum, heat inactivated (HyClone Laboratories Inc., cat. SH30070.03HI), 1.25 mM N-Acetyl-L-cysteine (Sigma-Aldrich, cat. A9165), 10 mM nicotinamide (Sigma-Aldrich, cat. N0636), 1X B-27 supplement (Thermo Fisher Scientific, cat. 17504044), 1X N-2 supplement (Thermo Fisher Scientific, cat. 17502048), and 10 microM Y-27632 dihydrochloride (Tocris Bioscience, cat. 1254). The 876862-298-R-J1-PDC was cultured in 6E media, which includes all 6B/Colon 1A media components plus 50% L-WRN conditioned media (ATCC, cat. CRL-3276), 50 ng/mL recombinant human EGF recombinant protein (hEGF; Thermo Fisher Scientific, cat. PHG0311), 10 ng/mL recombinant human fibroblast growth factor 10 (hGFG-10; PeproTech, cat. 100-26), 1 ng/mL recombinant human fibroblast growth factor 2 (hFGF-2; PeproTech, cat. 100-18B), and 1 µM prostaglandin E2 (PGE2; Tocris, cat. 2296). The 227483-062-R1-J1-PDC line was cultured in Panc media, containing all 6E components except hFGF-2, with the addition of 500 nM SB-431542 (Selleckchem, cat. S1067) and 10 nM gastrin (Tocris, cat. 3006). […]",
  "note": "“And” between values parts separate entries of the source, which are not always exact repeats. Identical values can stand only once.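 Further: spheroids exposed to the drugs for 7 days before readout.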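 Wherever viability, T/C is given: 100% = DMSO vehicle control wells.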",
  "data": [
    {"smiles": "C=CC(=O)N1CCN(c2nc(=O)n(-c3c(C)ccnc3C(C)C)c3nc(-c4c(O)cccc4F)c(F)cc23)C(C)C1", "note": "(centres undefined) + CNC(=O)c1ccc(Nc2nc(OC3CCCC3)c3c(-c4ccc5nc(C)oc5c4)c[nH]c3n2)c(OC)c1", "values": [
      {"measurement": "IC50", "setting": "curve of first compound, second compound 0.0316 µM", "value": "> 10", "unit": "µM"},
      {"measurement": "IC50", "setting": "curve of first compound, second compound 0.1 µM", "value": "> 10", "unit": "µM"},
      {"measurement": "IC50", "setting": "curve of first compound, second compound 0.316 µM", "value": "> 10", "unit": "µM"},
      {"measurement": "IC50", "setting": "curve of first compound, second compound 1 µM", "value": "> 10", "unit": "µM"},
      {"measurement": "IC50", "setting": "curve of first compound, second compound 3.16 µM", "value": 7.28, "unit": "µM"},
      {"measurement": "IC50", "setting": "curve of first compound, second compound 10 µM", "value": 4.7, "unit": "µM"},
      {"measurement": "viability, T/C", "setting": "second compound 0.0316 µM, first compound 0.0316 µM", "value": 106, "unit": "%"},
      {"measurement": "viability, T/C", "setting": "second compound 0.0316 µM, first compound 0.1 µM", "value": 95.9, "unit": "%"},
      {"measurement": "viability, T/C", "setting": "second compound 0.0316 µM, first compound 0.316 µM", "value": 93.6, "unit": "%"},
      {"measurement": "viability, T/C", "setting": "second compound 0.0316 µM, first compound 1 µM", "value": 107, "unit": "%"},
      {"measurement": "viability, T/C", "setting": "second compound 0.0316 µM, first compound 3.16 µM", "value": 102, "unit": "%"},
      {"measurement": "viability, T/C", "setting": "second compound 0.0316 µM, first compound 10 µM", "value": 85.7, "unit": "%"},
      {"measurement": "viability, T/C", "setting": "second compound 0.1 µM, first compound 0.0316 µM", "value": 71.5, "unit": "%"},
      {"measurement": "viability, T/C", "setting": "second compound 0.1 µM, first compound 0.1 µM", "value": 67.4, "unit": "%"},
      {"measurement": "viability, T/C", "setting": "second compound 0.1 µM, first compound 0.316 µM", "value": 78.5, "unit": "%"},
      {"measurement": "viability, T/C", "setting": "second compound 0.1 µM, first compound 1 µM", "value": 77.1, "unit": "%"},
      {"measurement": "viability, T/C", "setting": "second compound 0.1 µM, first compound 3.16 µM", "value": 73, "unit": "%"},
      {"measurement": "viability, T/C", "setting": "second compound 0.1 µM, first compound 10 µM", "value": 64.8, "unit": "%"},
      {"measurement": "viability, T/C", "setting": "second compound 0.316 µM, first compound 0.0316 µM", "value": 78.8, "unit": "%"},
      {"measurement": "viability, T/C", "setting": "second compound 0.316 µM, first compound 0.1 µM", "value": 76.5, "unit": "%"},
      {"measurement": "viability, T/C", "setting": "second compound 0.316 µM, first compound 0.316 µM", "value": 71, "unit": "%"},
      {"measurement": "viability, T/C", "setting": "second compound 0.316 µM, first compound 1 µM", "value": 76.2, "unit": "%"},
      {"measurement": "viability, T/C", "setting": "second compound 0.316 µM, first compound 3.16 µM", "value": 71.1, "unit": "%"},
      {"measurement": "viability, T/C", "setting": "second compound 0.316 µM, first compound 10 µM", "value": 53.3, "unit": "%"},
      {"measurement": "viability, T/C", "setting": "second compound 1 µM, first compound 0.0316 µM", "value": 63.2, "unit": "%"},
      {"measurement": "viability, T/C", "setting": "second compound 1 µM, first compound 0.1 µM", "value": 62.8, "unit": "%"},
      {"measurement": "viability, T/C", "setting": "second compound 1 µM, first compound 0.316 µM", "value": 67.7, "unit": "%"},
      {"measurement": "viability, T/C", "setting": "second compound 1 µM, first compound 1 µM", "value": 68.8, "unit": "%"},
      {"measurement": "viability, T/C", "setting": "second compound 1 µM, first compound 3.16 µM", "value": 66, "unit": "%"},
      {"measurement": "viability, T/C", "setting": "second compound 1 µM, first compound 10 µM", "value": 49, "unit": "%"},
      {"measurement": "viability, T/C", "setting": "second compound 3.16 µM, first compound 0.0316 µM", "value": 51.6, "unit": "%"},
      {"measurement": "viability, T/C", "setting": "second compound 3.16 µM, first compound 0.1 µM", "value": 62.4, "unit": "%"},
      {"measurement": "viability, T/C", "setting": "second compound 3.16 µM, first compound 0.316 µM", "value": 52.3, "unit": "%"},
      {"measurement": "viability, T/C", "setting": "second compound 3.16 µM, first compound 1 µM", "value": 58.5, "unit": "%"},
      {"measurement": "viability, T/C", "setting": "second compound 3.16 µM, first compound 3.16 µM", "value": 55, "unit": "%"},
      {"measurement": "viability, T/C", "setting": "second compound 3.16 µM, first compound 10 µM", "value": 42.7, "unit": "%"},
      {"measurement": "viability, T/C", "setting": "second compound 10 µM, first compound 0.0316 µM", "value": 62, "unit": "%"},
      {"measurement": "viability, T/C", "setting": "second compound 10 µM, first compound 0.1 µM", "value": 51.5, "unit": "%"},
      {"measurement": "viability, T/C", "setting": "second compound 10 µM, first compound 0.316 µM", "value": 51.6, "unit": "%"},
      {"measurement": "viability, T/C", "setting": "second compound 10 µM, first compound 1 µM", "value": 54.3, "unit": "%"},
      {"measurement": "viability, T/C", "setting": "second compound 10 µM, first compound 3.16 µM", "value": 55.7, "unit": "%"},
      {"measurement": "viability, T/C", "setting": "second compound 10 µM, first compound 10 µM", "value": 41, "unit": "%"}
    ]},
    {"smiles": "COc1c(OCCCN2CCOCC2)ccc2c3n(c(=NC(=O)c4cnc(N)nc4)nc12)CCN3", "values": [
      {"measurement": "viability, T/C", "setting": "compound 0.00316 µM", "value": "93.4% and 97.4%"},
      {"measurement": "viability, T/C", "setting": "compound 0.01 µM", "value": "64.2% and 60%"},
      {"measurement": "viability, T/C", "setting": "compound 0.0316 µM", "value": "32.8% and 28.6%"},
      {"measurement": "viability, T/C", "setting": "compound 0.1 µM", "value": "9.98% and 14.7%"},
      {"measurement": "viability, T/C", "setting": "compound 0.316 µM", "value": "7.88% and 8.03%"},
      {"measurement": "viability, T/C", "setting": "compound 1 µM", "value": "3.01% and 3.54%"},
      {"measurement": "IC50", "setting": "curve of compound", "value": "0.0167 µM and 0.0144 µM"}
    ]}
  ]
}
